Measured values reported in patent US20210139540A1, “MULTIVALENT LIGAND-LIPID CONSTRUCTS” (priority 2014, published 2021).

Test system: kodecytes
Assay: Complement induced cell lysis of kodecytes in pooled AB serum
Format: cell-based
Settings: for Abs 1: duplicate 1; for Abs 2: duplicate 2; for (A1 and A2): from duplicates; for Sensitivity of kodecytes to lysis compared with kodecytes prepared using construct 49: complement mediated autolysis; for Calculated %: percentage of cells lysed using standard curve; for Measured %: percentage of cells lysed, construct 49 set as 100; for Degree of lysis: qualitative
Protocol: Preparation of kodecytes Stock solutions of constructs (35, 47, 48 and 49) were prepared at a concentration of 1 mg/mL in a red blood cell (RBC) preservative solution (CELPRESOL™, CSL Limited). Prior to dilution each stock solution was vortexed for 45 seconds at room temperature (r.t.). A volume of 100 μL of diluted stock solution was added to a volume of 100 μL centrifugally packed RBCs (packed cell volume; PCV). The total volume of 200 μL suspended RBCs was incubated at 37° C. for 2 hours before washing with CELPRESOL™ and re-suspending the modified RBCs (“kodecytes”) at a concentration of 5% PCV in CELPRESOL™.
Prior to use kodecytes were washed and re-suspended 5% PCV in phosphate buffered saline (PBS). Uniformity of concentration of RBCs was confirmed by adding a volume of 40 μL of kodecyte suspension to a volume of 1 mL of Drabkins solution and the absorbance measured at 540 nm against Drabkins solution (blank). Variations in measured absorbances was reduced to less than 10% by adjustment of suspending volume.
The ability of constructs to induce complement mediated autolysis was evaluated by a method analogous to that described in the publication of Henry and Komarraju (2012). For the present studies kodecytes prepared using construct 49 were used as a 100% lysis control. A volume of 200 μL pooled AB serum and a volume of 100 μL kodecytes prepared using construct 49 at a concentration of 750 μg/mL was used as the 100% lysis control. A volume of 200 μL pooled AB serum and a volume of 100 μL O group RBCs (prepared as kodecytes without the addition of construct) was used as the 0% lysis control. To measure the ability of constructs to induce complement mediated autolysis of kodecytes volumes of 200 μL of pooled AB serum were dispensed into duplicate sets of test tubes. A volumes of 100 μL kodecytes was added to the tubes before incubation at 37° C. for 1 hour. Following incubation a volume of 1 μL ethylenediaminetetraacetic acid (EDTA) as its dipotassium salt
was added to each to each test tube to provide a final concentration of 0.1 mM EDTA. The test tubes were then centrifuged and the characteristics of the sedimented RBCs and supernatant observed (Table 2 and FIG. 2). In addition a volume of 160 μL of the cell free supernatant was removed and added to a volume of 1 mL of Drabkins solution. The absorbance of the solution was then measured at 540 nm against a volume of 160 μL pooled AB serum added to a volume of 1 mL of Drabkins solution (blank). The absorbance of the supernatant was calculated as a percentage of the initial absorbance of the suspension of kodecytes. The percentage of cells lysed was calculated against a standard curve.

[1] = absorbance 540 nm of supernatant, concentration not given
[2] = absorbance 540 nm, concentration not given
[3] = pooled AB serum, 37° C., 1 hour, construct concentration not given
[4] = absorbance 540 nm, 100% lysis control (construct 49 at 750 μg/mL)

Molecule	Abs 1 [1]	Abs 2 [1]	(A1 and A2) [2]	Sensitivity of kodecytes to lysis compared with kodecytes prepared using construct 49 (pooled AB serum)	Calculated % (concentration not given)	Measured % (concentration not given)	Degree of lysis [3]	Abs 1 [4]	Abs 2 [4]	(A1 and A2) [4]	Calculated % (100% lysis control (construct 49 at 750 μg/mL))	Degree of lysis (100% lysis control: kodecytes prepared using construct 49 at 750 μg/mL)
Galili-CMG2-Ad-DOPE [construct 47]	.224	.243	.234	somewhat more sensitive	65%	128%	Partial					
Galα1-3Galβ1-4GlcNAc-Ad-DOPE [construct 49]	.178	.187	.183		51%	Set as 100%	Partial	.303	.310	.307	85%	Complete
CCCCCCCC/C=C\CCCCCCCC(=O)OCC(COP(=O)(O)OCCNC(=O)CCCCC(=O)NCCCO[C@@H]1OC(CO)[C@@H](O[C@@H]2OC(CO)[C@H](O)C(O[C@H]3OC(CO)[C@H](O)C(O)C3NC(C)=O)C2O)C(O)C1NC(C)=O)OC(=O)CCCCCCC/C=C\CCCCCCCC (stereo partly shown) [construct 48, GalNAcα1-3Galβ1-4GlcNAc-Ad-DOPE]	.349	.345	.347	approximately twice as sensitive	95%	190%	Complete					
